Laboratory results: patent US9993462B2, “Hydantoin derivative-containing pharmaceutical composition” (Chugai Seiyaku Kabushiki Kaisha, priority 2014, dated 2018)

Assays:
rat PTH1R = target: T1, rat PTH1R (Rattus norvegicus, UniProt P25961); assay: In vitro cAMP signaling activity via the rat PTH1R (LLC-PK46_RATO_PTH1R cells); type: cell-based; conditions: LLC-PK46_RATO_PTH1R cells overexpressing rat PTH1R
T1 construct: expressed in transfected cells
T1 sequence (P25961 27-591): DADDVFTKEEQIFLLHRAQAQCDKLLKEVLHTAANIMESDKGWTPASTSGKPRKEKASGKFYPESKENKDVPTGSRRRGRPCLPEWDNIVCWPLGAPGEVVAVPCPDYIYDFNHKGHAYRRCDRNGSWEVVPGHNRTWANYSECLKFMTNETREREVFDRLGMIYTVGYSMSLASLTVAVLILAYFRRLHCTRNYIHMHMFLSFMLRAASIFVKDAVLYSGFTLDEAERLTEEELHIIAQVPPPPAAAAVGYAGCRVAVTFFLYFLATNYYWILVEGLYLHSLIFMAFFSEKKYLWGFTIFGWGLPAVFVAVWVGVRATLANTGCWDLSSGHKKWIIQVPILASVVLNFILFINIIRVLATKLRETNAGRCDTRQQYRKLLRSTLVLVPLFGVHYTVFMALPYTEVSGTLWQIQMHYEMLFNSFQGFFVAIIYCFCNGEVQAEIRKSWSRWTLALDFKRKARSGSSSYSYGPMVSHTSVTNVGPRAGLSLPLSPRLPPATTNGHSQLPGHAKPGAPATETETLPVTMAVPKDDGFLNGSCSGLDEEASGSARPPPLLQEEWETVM
Source text: Instead of HKRK-B7 cells, LLC-PK46_RATO_PTH1R cells overexpressing rat PTH1R, which were established at Chugai Pharmaceutical, were used to take measurements in a similar manner to Reference Test Example 1.

rat hepatocyte = assay: Metabolic stability using rat hepatocyte; type: in vitro ADME
Procedure: Liver cells were prepared from the liver of rats (SD, female) by a collagenase perfusion method. A compound of the Reference Examples or a Comparative Example was added, and this was incubated at 37° C. for a specified amount of time, followed by addition of a reaction-stopping solution. The concentration of the parent compound at each reaction time was measured using LC/MS/MS, and inherent clearance (μL/10^6 cells/min) was calculated from the slope of the reaction time versus residual rate.
• Cell concentration: 1×10^6 cells/mL • Compound concentration: 1 μM • Medium: Williams' medium E • Reaction time: 0, 15, 30, 60, 120, and 240 minutes • Reaction-stopping solution: acetonitrile/2-propanol (4/6, v/v)

TPTX rat = assay: Calcemic action in the TPTX rat model; type: in vivo; conditions: TPTX rats, 30 mg/kg oral; for change of serum Ca concentration from the Pre-value (in words): up to 24 hours after administration
Procedure: Four-week old female Crl:CD(SD) rats were obtained from Charles River Japan (Atsugi Breeding Center), and were acclimated to standard laboratory conditions of 20-26° C. and 35-75% humidity for one week. The rats were given tap water and were fed ad libitum with standard rodent chow (CE-2) (CLEA Japan, Inc.) containing 1.1% calcium, 1.0% phosphoric acid, and 250 IU/100 g of vitamin D3.
TPTX was performed on five-week old rats. Some of the individuals were subjected to sham operation (Sham). Individuals whose serum Ca concentration was less than 8 mg/dL on four days after the operation were selected for use as TPTX rats. On five days after the operation, the rats were assigned to eight TPTX groups and one Sham group (n=5, each group) based on their body weight and serum Ca concentration measured on four days after the operation. The solvent alone was orally administered to the Sham group and the TPTX-Vehicle group at a volume of 10 mL/kg. Each test article was orally administered individually to each TPTX test article group by dissolving it in a solvent at a dose of 30 mg/10 mL/kg. The solvent composition was 10% dimethylsulfoxide (Wako Pure Chemical Industries, Ltd.), 10% Cremophor EL (Sigma-Aldrich Japan LLC), 20% hydroxypropyl-β-cyclodextrin (Nihon Shokuhin Kako Co., Ltd.), glycine (Wako Pure Chemical Industries, Ltd.); and the pH was adjusted to 10. Immediately before administration of each sample, Pre-blood collection was performed, and blood collection was carried out at 2, 6, 10, and 24 hours after administration to measure the serum Ca concentration. Each blood collection was carried out from the jugular vein under isoflurane inhalation anesthesia.
Serum Ca measurement: Serum obtained by centrifugation from the collected blood was measured by using an automatic analyzer TBA-120FR (Toshiba Medical Systems Corporation).
For statistical analysis of the animal studies, data are shown as mean±standard error (SE). Statistical analysis were performed by unpaired test of the SAS Preclinical Package (Ver. 5.00.010720, SAS Institute Japan, Tokyo, Japan).

[1] = test system: human articular chondrocytes; assay: Proteoglycan synthesis by human articular chondrocytes (35S-sulfate incorporation); type: cell-based; conditions: TGF-β1 10 ng/mL, cultured for 13 days
Procedure: After purchase of cryopreserved human articular chondrocytes (Lot 2867, Cell Applications Inc.), the cells were thawed in a 37° C. water bath, 15 mL of Basal Medium supplemented with 10% Growth Supplement (Growth Medium, Cell Applications Inc.) was placed in a T75 culture flask (CORNING, Corning Japan K. K.) to culture the cells, and exchanged the next day with 15 mL of Growth Medium; and the cells were cultured for three days. Growth Medium was then removed, and HBSS (Cell Applications Inc.) was used to wash the chondrocyte layer. With addition of 1 mL of trypsin/EDTA solution (Cell Applications Inc.), this was left to stand at room temperature for approximately five minutes, and chondrocytes were detached from the flask. With 10 mL of Neutralization solution (Cell Applications Inc.) added, Bulker-Turk hemocytometer was used to determine the cell count, and the cells were then transferred to a 15-mL test tube for centrifugation (1,200 rpm for five minutes, Tomy Seiko Co., Ltd.) to produce a chondrocyte pellet. The supernatant was discarded, and the cells were placed in a 1.2% sodium alginate solution (25 mmol/L HEPES/150 mmol/L sodium chloride solution, pH7.0) at 2×10^6 cells/mL. This was drawn into a 1-mL syringe (Terumo Corporation) equipped with a 22G injection needle, five drops were added to each well of a 24-well plate (Corning Japan K.K.) containing 2 mL of 102 mmol/L aqueous CaCl2 solution, and this was left to stand for five minutes to form beads. Subsequently, this was washed three times with a 150 mmol/L sodium chloride solution and incubated for one day in Growth Medium, and the medium was exchanged with Basal Medium supplemented with 1% Growth supplement (Cell Applications Inc.). In this procedure, the following factors were added to the medium, and the cells were cultured for 13 days with three times of medium exchange performed per week.
On day 12 of culturing, ^35S-labeled sulfuric acid (PerkinElmer Japan Co., Ltd.) was added at 370 kBq/well, and the medium was collected 24 hours later into a test tube and stored at 4° C. To the alginate gel, a 55 mmol/L sodium citrate solution (Nacalai Tesque, Inc.; 1 mL/well) was added, and this was incubated at 37° C. for ten minutes for solation. This was collected into a microtube (Eppendorf AG) and then centrifuged (1,200 rpm, five minutes) to produce a chondrocyte pellet. […] The glass filter was transferred to a liquid scintillation counter vial, 5 mL of scintillator (Hionic-Fluor, PerkinElmer Japan Co., Ltd.) was added and radioactivity was measured on a liquid scintillation counter (TRI-CARB, PerkinElmer Japan Co., Ltd.).
The remaining 0.1 mL of the digested solution was used for DNA quantification. […]

human PTH1R = target: T2, human PTH1R (Homo sapiens, UniProt Q03431); assay: In vitro cAMP signal activity via the human PTH1R (HKRK-B7 cells); type: cell-based; conditions: concentration at 20% cAMP signaling activity, human PTH(1-34) at 100 nM = 100%
T2 construct: expressed in transfected cells; host or cells: HKRK-B7 (LLC-PK1 porcine kidney cells stably expressing human PTH1R)
T2 sequence (Q03431 27-593): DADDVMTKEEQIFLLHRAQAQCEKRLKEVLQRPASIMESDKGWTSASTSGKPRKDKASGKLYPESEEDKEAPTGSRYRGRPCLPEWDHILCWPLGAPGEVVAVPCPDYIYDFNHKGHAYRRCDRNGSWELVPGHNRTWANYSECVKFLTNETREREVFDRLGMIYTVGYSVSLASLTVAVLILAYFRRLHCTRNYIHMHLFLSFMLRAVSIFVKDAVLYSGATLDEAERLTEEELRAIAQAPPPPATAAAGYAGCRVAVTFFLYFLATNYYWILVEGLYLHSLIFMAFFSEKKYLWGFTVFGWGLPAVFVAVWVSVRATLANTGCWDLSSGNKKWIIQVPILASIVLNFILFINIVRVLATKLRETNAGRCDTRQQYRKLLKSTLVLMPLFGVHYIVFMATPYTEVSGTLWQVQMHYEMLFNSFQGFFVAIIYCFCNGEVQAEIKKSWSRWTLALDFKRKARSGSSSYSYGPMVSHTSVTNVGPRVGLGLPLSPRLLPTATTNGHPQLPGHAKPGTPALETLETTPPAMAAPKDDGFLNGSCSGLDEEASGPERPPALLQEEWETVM
Procedure: Human PTH(1-34) and calcitonin were purchased from Peptide Institute, Inc. (Osaka, Japan), dissolved in 10 mM acetic acid to 1 mM and stored in a −80° C. freezer.
Cells were cultured in Dulbecco's modified Eagle's medium (DMEM) supplemented with 10% fetal bovine serum (Hyclone), 100 units/ml penicillin G and 100 μg/ml streptomycin sulfate (Invitrogen Corp) at 37° C. in a humidified atmosphere containing 5% CO2.
cAMP signal transduction analysis utilized LLC-PK1 cells not expressing the PTH1R, and HKRK-B7 cells, that is, LLC-PK1 cells overexpressing the human PTH1R at 9.5×10^5 receptors/cell (Takasu et al., J. Bone. Miner. Res. 14:11-20, 1999).
HKRK-B7 or LLC-PK1 cells were seeded into a 96-well plate at 1×10^5 cells/well and incubated overnight. On the following day, 50 μl of cAMP assay buffer (DMEM, 2 mM IBMX, 0.2 mg/ml bovine serum albumin, 35 mM Hepes-NaOH, pH 7.4) containing human PTH(1-34) or each compound was added and the plate was placed in a 37° C. incubator. The cells were incubated for 20 minutes. After removing the medium, the cells were washed with 100 μl of cAMP assay buffer once. The plate was placed on dry ice powder to freeze the cells and then removed from the dry ice. The cells were lysed with 40 μl of 50 mM HCl and frozen again on dry ice. The amount of intracellular cAMP produced was measured using a commercially available cAMP EIA kit (Biotrack cAMP EIA system, GE health care).
Analyses were performed using a variable gradient S-shaped dose-response curve equation.

Compound	EC20 (rat PTH1R) [nM]	rat hepatocyte metabolic stability compared to Comparative Examples 1, 2, 3, 5, and 6 (in words) (rat hepatocyte)	achievement of the therapeutic target range of serum Ca concentration of 7.6 to 8.8 mg/dL (TPTX rat)	change of serum Ca concentration from the Pre-value (in words) (TPTX rat)	radioactivity (proteoglycan synthesis, cpm/μg DNA) relative to the vehicle control [1] [fold]	EC20 (human PTH1R) [nM]
Cc1cc(N2C(=O)NC(=O)C23CCCC3)cc(C)c1CCS(=O)(=O)N1CCC2(CC1)N=C(c1ccc(OC(F)(F)F)cc1)NC2=O [Compound 8, 1-(3,5-dimethyl-4-(2-((4-oxo-2-(4-(trifluoromethoxy)phenyl)-1,3,8-triazaspiro[4.5]deca-1-en-8-yl)sulfonyl)ethyl)phenyl)-1,3-diazaspiro[4.4]nonane-2,4-dione]	400	increased	achieved the therapeutic target range	large positive changes from the Pre-value	–	–
TGF-β1: Positive control for proteoglycan synthesis, 10 ng/mL [reference compound]	–	–	–	–	10	–
Cc1cc(N2C(=O)NC(=O)C23CC3)cc(C)c1CCS(=O)(=O)N1CCC2(CC1)N=C(c1ccc(OC(F)(F)F)cc1)NC2=O [Compound 11, 4-(3,5-dimethyl-4-(2-((4-oxo-2-(4-(trifluoromethoxy)phenyl)-1,3,8-triazaspiro[4.5]deca-1-en-8-yl)sulfonyl)ethyl)phenyl)-4,6-diazaspiro[2.4]heptane-5,7-dione]	800	increased	–	–	–	1500
Cc1cc(N2C(=O)NC(=O)C23COC3)cc(C)c1CCS(=O)(=O)N1CCC2(CC1)N=C(c1ccc(OC(F)(F)F)cc1)NC2=O [Compound 10, 5-(3,5-dimethyl-4-(2-((4-oxo-2-(4-(trifluoromethoxy)phenyl)-1,3,8-triazaspiro[4.5]deca-1-en-8-yl)sulfonyl)ethyl)phenyl)-2-oxa-5,7-diazaspiro[3.4]octane-6,8-dione]	3000	increased	–	–	–	5000
Cc1cc(N2C(=O)CNC2=O)ccc1CCS(=O)(=O)N1CCC2(CC1)N=C(c1cccc(OC(F)(F)F)c1)NC2=O [Comparative Example 1, reference compound]	800	–	could not be achieved	smaller positive changes from the Pre-value	–	1500
